Values after ≈ are worked out from the molar mass of the structure shown.
Key:
[1] = biological target: T1, MAT2A enzyme (Homo sapiens, UniProt P31153); assay: Phosphate Sensor Fluorescence Assay; format: biochemical; conditions: inhibition of MAT2A enzyme
T1 construct: Human MAT2A: Cepter, amino acids 1-395; purchased Cepter clone ID 329, lot 00023-123; clone ID 334, lot 00023-148
Experimental: The ability of the compound of Formula (I) described in Example 1 to inhibit MAT2A enzyme was determined using a Phosphate Sensor Fluorescence Assay described below.
MAT2A enzyme is incubated with a test compound in DMSO or DMSO and its substrates (L-methionine and ATP) in a microtiter plate. The enzymatic reaction is stopped by the addition of Working Phosphate Sensor Mixture. The plate is analyzed for fluorescence at 450 nm. The high control (DMSO with enzyme and its substrates) gives high fluorescence which represents no inhibition of enzymatic activity while the low control (DMSO with MAT2A substrates and no enzyme) gives low fluorescence which represents full inhibition of enzymatic activity. […]
For the assay, a mixture of 1 mM L-methionine/1 mM ATP (2× final pre-stopped concentration) in assay buffer; MAT2A (2× final pre-stopped concentration) in Assay Buffer and Working Phosphate Sensor Mixture (1.5 μM Phosphate Sensor/30 mM EDTA in Assay Buffer, which is 3× final concentrations) were prepared. […] The plate was read for fluorescence at 450 nm after exciting at 430 nm.
Percent inhibition was calculated in Chemical and Biological Information System (CBIS), (ChemInnovation Software Inc.). […]

[2] = Behavior under compression; format: physicochemical; conditions: 2 Mpa/2 min, hydraulic press
Experimental: XRPD characterization was performed to investigate polymorphic behavior under compression.

[3] = Intrinsic dissolution rate (IDR) evaluation in FaSSIF; format: physicochemical; conditions: FaSSIF at 37° C.
Experimental: Only one surface of the pellet was exposed (surface area=0.50 cm^2) to 900 mL FaSSIF, the dissolution medium. Temperature of chamber medium was set as 37±0.5° C. Shaft rotation as 100 rpm and sampling time points as 2 min, 5 min, 10 min, 15 min, 20 min, 25 min, 30 min, 35 min, 40 min, 50 min, 60 min, and 120 min. 2 mL sample solution was withdrawn at each time point and centrifuged at 14,000 rpm for 5 min to isolate supernatant. Then concentration of the supernatant was analyzed by HPLC. After 120 min, XRPD of disc surface was measured.

[4] = Equilibrium solubility in FeSSIF and FaSSIF; format: physicochemical; conditions: 24 hours; for Solubility: target concentration 1 mg/mL, HPLC method 1 or 2 (footnote)
Experimental: Solid part and liquid part were separated by filtration. Solubility was measured by HPLC. Solid part (wet cake) was investigated by XRPD.

[5] = Bulk stability of crystalline forms; format: physicochemical; set-up: key: Color A: All No change of color; Color B: Slightly discoloration; conditions: Solid state, 60° C., tight container, 2 weeks
From the text: (§1) Solids obtained after bulk stability study were characterized by XRPD and HPLC.

[6] = Bulk stability of crystalline forms; format: physicochemical; set-up: key: Color A: All No change of color; conditions: Solid state
From the text: as §1

[7] = Bulk stability of crystalline forms; format: physicochemical; conditions: for Purity, Bulk (HPLC): Solid state
From the text: as §1

[8] = 25° C./92% RH, open container, 1 week
[9] = 25° C./92% RH, open container, 2 weeks
[10] = 25° C./92% RH, open container, 4 weeks
[11] = 40° C./75% RH, open container, 1 week
[12] = 40° C./75% RH, open container, 2 weeks
[13] = 40° C./75% RH, open container, 4 weeks
[14] = 60° C., tight container, 1 week
[15] = 60° C., tight container, 4 weeks

T1 sequence (P31153 whole entry, the tested form may be a part): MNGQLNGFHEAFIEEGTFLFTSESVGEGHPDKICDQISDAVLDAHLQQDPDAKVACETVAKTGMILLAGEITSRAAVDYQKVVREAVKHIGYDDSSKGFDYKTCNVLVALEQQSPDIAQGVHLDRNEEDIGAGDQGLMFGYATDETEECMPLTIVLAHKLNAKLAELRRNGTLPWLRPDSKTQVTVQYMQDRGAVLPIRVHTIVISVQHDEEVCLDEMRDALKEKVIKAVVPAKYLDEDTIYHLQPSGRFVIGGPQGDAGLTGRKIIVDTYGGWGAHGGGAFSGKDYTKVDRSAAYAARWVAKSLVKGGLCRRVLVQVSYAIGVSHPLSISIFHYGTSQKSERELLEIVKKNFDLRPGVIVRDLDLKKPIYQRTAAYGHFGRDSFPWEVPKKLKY

Nc1nc(=O)n(-c2ccccc2Cl)c2nc(C(F)(F)F)ccc12 [Formula (I), 4-Amino-1-(2-chlorophenyl)-7-(trifluoromethyl)pyrido[2,3-d]pyrimidin-2(1H)-one]
IC50 [1]: < 200 nM

Nc1nc(=O)n(-c2ccccc2Cl)c2nc(C(F)(F)F)ccc12 [substantially amorphous form, 4-Amino-1-(2-chlorophenyl)-7-(trifluoromethyl)pyrido[2,3-d]pyrimidin-2(1H)-one]
XRPD after compression [2]: No form change
XRPD after IDR ([3]; disc surface after 120 min): No form change
Concentration detected during IDR test (Comments) ([3]; for Form V and Form A remains same during the whole process, LOQ for Form T and amorphous form): <LOQ (0.0008 mg/mL
final pH ([4]; FaSSIF, pH 6.5, 37° C.): 6.5
Solubility ([4]; FaSSIF, pH 6.5, 37° C.): 0.12 mg/mL (≈ 352 µM)
final pH ([4]; FeSSIF, pH 5.0, 37° C.): 5.0
Solubility ([4]; FeSSIF, pH 5.0, 37° C.): 0.23 mg/mL (≈ 675 µM)
Color [5]: B
Color [6, 8]: A
Color [6, 9]: A
Color [6, 10]: A
Color [6, 11]: A
Color [6, 12]: A
Color [6, 13]: A
Color [6, 14]: A
Color [6, 15]: A
Purity, Bulk (HPLC) [7, 8]: 98.5%
Purity, Bulk (HPLC) [7, 9]: 98.1%
Purity, Bulk (HPLC) [7, 10]: 97.2%
Purity, Bulk (HPLC) [7, 11]: 97.5%
Purity, Bulk (HPLC) [7, 12]: 96.1%
Purity, Bulk (HPLC) [7, 13]: 93.5%
Purity, Bulk (HPLC) [7, 14]: 98.4%
Purity, Bulk (HPLC) ([7]; 60° C., tight container, 2 weeks): 97.8%
Purity, Bulk (HPLC) [7, 15]: 97.8%
degradation (bulk stability) ([7]; after exposure to 40° C./75 RH in an open container and 60° C. in a tight container): slight degradation
Initial purity ([7]; before stress, HPLC): 98.7%
chemical stability and physical stability (bulk stability) ([7]; stressed under 25° C./92 RH, 40% C/75% RH and 60° C., XRPD and HPLC): physically stable

— US20260193254A1, “2-OXOQUINAZOLINE CRYSTALLINE FORMS” (IDEAYA Biosciences, Inc., priority 2022, published 2026)
